How the values were obtained:
[1] = cholesterol:CTAB vesicles, DELOS-SUSP; cited from earlier work
[2] = tested on: Aspergillus niger; assay: Agar diffusion method, fungicidal activity; type: cell-based; conditions: 28° C., 72 hours; controls 100 μg/ml
Protocol: (§1) This activity was determined using the agar diffusion method (Manual of Clinical Microbiology. 6th ed. Washington, DC: ASM; 1995). The effectiveness of the different suspensions was assayed against Gram positive bacteria (Bacillus subtilis, Staphylococcus aureus), Gram negative bacteria (E. coli, Proteus mirabilis), and against fungi (Candida albicans, Aspergillus niger) using the technique of wells in nutrient agar plates. These microorganisms were identified and provided by the microorganism collection BCCM/LMG (Belgium). Bacteria were grown overnight at 37° C. in Tryptone Soy Broth (Oxoid), and fungi were incubated for 72 hours at 28° C. in Sabouraud Dextrose Broth (Oxoid). These suspensions were used as inocula. A final inoculum, using 100 μl of a suspension containing 10^8 colony forming units/ml of bacteria, or 10^4 spores/ml of fungus, was spread on Tryptone Soy Agar and Sabouraud Dextrose Agar (Oxoid) plates, respectively. The disk (6 mm in diameter) was impregnated with each of the different vesicle suspensions to be tested. […] Assay plates were incubated at 37° C. for 24 hours for bacteria, and 28° C. during 72 hours for fungi, depending on the incubation time required for visible growth.

[3] = tested on: Candida albicans; assay: Agar diffusion method, fungicidal activity; type: cell-based; conditions: 28° C., 72 hours; controls 100 μg/ml
Protocol: as §1

| Compound | gentamicin encapsulation [1] [%] | Fungicidal activity (Inhibition zone) A. niger [2] [mm] | Fungicidal activity (Inhibition zone) C. albicans [3] [mm] |
| --- | --- | --- | --- |
| gentamicin | < 2 |  |  |
| OC(Cn1cncn1)(Cn1cncn1)c1ccc(F)cc1F [Fluconazole, fluconazole] |  | 21 | 22 |

— US11510965B2, “Vesicles comprising epidermal growth factor and compositions thereof” (Centro de Ingeniería Genética y Biotecnología, priority 2012, dated 2022)
